Experimental data published in patent US7419789B2, “Method of inhibiting binding of Dengue virus to a human cell with DC-SIGN blockers” (Institut Pasteur, priority 2002, dated 2008).

System: DEN-1 virus strain FGA/NA d1d
Assay: Inhibition of DC-SIGN-mediated DEN-1 virus infection of THP/DC-SIGN cells, indirect immunofluorescence
Type: cell-based, DEN-1 virus (human monocytic THP/DC-SIGN cells)
Settings: m.o.i. 5 AP61 FFU/cell
Experimental: Prior to infection, THP-1/DC/SIGN cells were incubated with either Mab 9D12 (dilution 1:50), Mab BD12.5 (20 μg/ml), Mab 1B10.2.6 (20 μg/ml), EDTA (5 mM), mannan (20 μg/ml), or mock-treated (control). Treated cells were infected with DEN-1 virus strain FGA/NA did (5 AP61 FFU/cell) in the presence of reagents for 2 hrs. Viral antigens were detected by indirect immunofluorescence as described in the legend of FIG. 1. The percentages of infected cells 48 h post-infection are indicated. Values represent the mean of triplicate assays ±SD.
Cells were washed once with RPMI 1640, incubated with highly purified virus in RPMI 1640 supplemented with 0.2% bovine serum albumine (BSA, pH 7.5) (Sigma) for 2 hrs at 37° C. and placed into fresh media supplemented with 2% FCS, 2 mM L-glutamine and antibiotics Peni/Strepto at 37° C. for 40 hrs.
The percentage of cells expressing viral antigen was determined using either DEN-1 virus-specific hyperimmune mouse ascites fluid (HMAF) 9801 (strain Hawaï), WN virus-specific HMAF 0801 (strain IS-98-ST1), or YF virus-specific HMAF. 9803 (strain FNV) with dilution of 1:50, by indirect immunofluorescence as previously described (Desprès et al., J. Virol., 70: 4090, 1996). […]

Row | Compound | infectivity of DEN-1 virus in preincubated THP/DC-SIGN cells (EDTA 5 mM, Mab 20 μg/ml) | reduction of FGA/NA d1d infectivity (20 μg/ml)
1 | O=C(O)CN(CCN(CC(=O)O)CC(=O)O)CC(=O)O [EDTA] | essentially abolished | 
2 | mannan |  | 75%
